In US8722849B2, “Polypeptides” (Novo Nordisk A/S, priority 2011, dated 2014):
In brackets after ≈: the same amount, converted by molar mass. Where two headings read alike, the source gives them in different places. Starred links: 1 amine or outer side, 2 acyl side, 3 side chain; linkers in the order of their positions; H or OH if unused. Positions of bridges follow the written chain, without caps; N, C: chain ends. Residues, ends and D or L forms follow the SMILES beside them. *: point of attachment. C20 diacid = O=C(O)CCCCCCCCCCCCCCCCCCC(=O)*; γGlu = O=C(O)[C@H](CCC(=O)[*:2])N[*:1]

What was measured:
[1] = molecular target: T1, human calcitonin receptor (Homo sapiens, UniProt P30988); assay: Assay (II)a functional CRE-luciferase assay, human calcitonin receptor; type: cell-based
T1 construct: expressed in transfected cells; host or cells: BHK570
T1 sequence (P30988 25-474): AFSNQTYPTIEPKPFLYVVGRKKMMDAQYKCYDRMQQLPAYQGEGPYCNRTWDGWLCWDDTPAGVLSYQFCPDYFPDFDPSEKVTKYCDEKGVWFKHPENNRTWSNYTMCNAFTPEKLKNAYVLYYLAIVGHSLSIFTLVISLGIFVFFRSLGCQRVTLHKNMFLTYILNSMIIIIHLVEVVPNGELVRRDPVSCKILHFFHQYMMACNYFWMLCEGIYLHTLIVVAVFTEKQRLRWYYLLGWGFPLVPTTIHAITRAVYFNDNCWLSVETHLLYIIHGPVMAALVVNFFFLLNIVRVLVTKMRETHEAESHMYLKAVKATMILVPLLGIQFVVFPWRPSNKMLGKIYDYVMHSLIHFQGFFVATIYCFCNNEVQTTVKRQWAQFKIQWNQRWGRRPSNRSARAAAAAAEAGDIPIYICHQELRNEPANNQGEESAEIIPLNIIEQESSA

[2] = Assay (IV) determination of solubility; type: physicochemical
Method in brief: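 Solubility was profiled across pH 3.0–8.0 after 18 hours at room temperature: a ~500 nmol/ml aqueous polypeptide solution was diluted 1:1 into 100 mM glycylglycine or bistrispropane buffers. After centrifugation, HPLC gave the dissolved concentration.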

[3] = molecular target: T2, human amylin receptor (amylin 3(a) receptor: human calcitonin receptor + RAMP-3) (Homo sapiens, UniProt O60896+P30988); assay: Assay (II)a functional CRE-luciferase assay, human amylin receptor; type: cell-based
T2 construct: expressed in transfected cells; host or cells: BHK570
T2 sequence (P30988 25-474): T1 sequence (P30988 25-474)
T2 sequence (O60896 24-148 partner): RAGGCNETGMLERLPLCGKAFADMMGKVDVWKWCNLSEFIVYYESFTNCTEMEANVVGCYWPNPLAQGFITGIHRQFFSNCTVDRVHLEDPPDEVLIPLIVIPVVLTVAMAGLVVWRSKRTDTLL

[4] = Assay (III) ThT fibrillation assay for physical stability; type: physicochemical; conditions: ThT fibrillation assay
Method in brief: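 Freshly prepared formulations, pH-adjusted, with 1 μM ThT; four or eight replicates incubated at 37 °C under 960 rpm orbital shaking. Fluorescence (ex 444/em 485 nm) read every 20 min; […]. Peptide concentration measured by RP-HPLC before and after the run.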

[5] = bistrispropane buffer, pH 6, pH 6.0, read-out: Solubility pH 6.0
[6] = bistrispropane buffer, pH 6.5, pH 6.5, read-out: Solubility pH 6.5
[7] = bistrispropane buffer, pH 7, pH 7.0, read-out: Solubility pH 7.0
[8] = bistrispropane buffer, pH 7.5, pH 7.5, read-out: Solubility pH 7.5
[9] = bistrispropane buffer, pH 8, pH 8.0, read-out: Solubility pH 8.0
[10] = glycylglycine buffer, pH 3, pH 3.0, read-out: Solubility pH 3.0
[11] = glycylglycine buffer, pH 4, pH 4.0, read-out: Solubility pH 4.0
[12] = glycylglycine buffer, pH 5, pH 5.0, read-out: Solubility pH 5.0
[13] = Table 7, human calcitonin (CTa) receptor
[14] = glycylglycine buffer, pH 4, pH 4.0, 18 hours at room temperature, Table 2, read-out: Solubility pH 4.0
[15] = Table 2, BHK amylin 3(a)-receptor/CRE-luc cells
[16] = bistrispropane buffer, pH 7, pH 7.0, 18 hours at room temperature, Table 3, read-out: Solubility pH 7.0

EC50 ([1]; Table 11, read-out: CTa receptor human EC50) [nM]	solubility at 18 h [2, 5] [µM]	solubility at 18 h [2, 6] [µM]	solubility at 18 h [2, 7] [µM]	solubility at 18 h [2, 8] [µM]	solubility at 18 h [2, 9] [µM]	solubility at 18 h [2, 10] [µM]	solubility at 18 h [2, 11] [µM]	solubility at 18 h [2, 12] [µM]	EC50 ([3]; Table 6, human amylin receptor) [nM]	ThT pH 4.0 lag time (h) [4] [h]	EC50 [1, 13] [nM]	solubility at 18 h [2, 14] [µM]	EC50 [3, 15] [nM]	solubility at 18 h [2, 16] [µM]	Compound
0.061	> 200	> 200	> 200	> 200	> 200	> 200	> 200	> 200	0.063	0.7	–	–	–	–	CC[C@H](C)[C@H](NC(=O)[C@@H]1CCCN1C(=O)CNC(=O)[C@H](Cc1ccccc1)NC(=O)[C@H](CC(N)=O)NC(=O)[C@H](CC(N)=O)NC(=O)[C@H](CO)NC(=O)[C@H](CO)NC(=O)[C@H](Cc1c[nH]cn1)NC(=O)[C@@H](NC(=O)[C@H](CC(C)C)NC(=O)[C@H](Cc1ccccc1)NC(=O)[C@H](CC(N)=O)NC(=O)[C@H](C)NC(=O)[C@H](CC(C)C)NC(=O)[C@H](CCCNC(=N)N)NC(=O)[C@H](CCC(N)=O)NC(=O)[C@@H](NC(=O)[C@H](C)NC(=O)[C@@H]1CSSC[C@H](NC(=O)[C@H](CCC(=O)O)NC(=O)[C@H](CCCNC(=N)N)NC(=O)[C@H](CCC(=O)O)NC(=O)CC[C@H](NC(=O)CCCCCCCCCCCCCCCCCCC(=O)O)C(=O)O)C(=O)N[C@@H](CC(N)=O)C(=O)N[C@@H]([C@@H](C)O)C(=O)N[C@@H](C)C(=O)N[C@@H]([C@@H](C)O)C(=O)N1)[C@@H](C)O)C(C)C)C(=O)N[C@@H](CC(C)C)C(=O)N1CCC[C@H]1C(=O)N1CCC[C@H]1C(=O)N[C@H](C(=O)N[C@@H](CC(N)=O)C(=O)N[C@H](C(=O)NCC(=O)N[C@@H](CO)C(=O)N[C@@H](CC(N)=O)C(=O)N[C@H](C(=O)N1CCC[C@H]1C(N)=O)[C@@H](C)O)C(C)C)[C@@H](C)O [Example 122, N-alpha-[(S)-4-Carboxy-4-(19-carboxynonadecanoylamino)butyryl]-Glu-Arg-[Glu1,Pro37]-pramlintide] ({C20 diacid-γGlu}-ERECNTATCATQRLANFLVHSSNNFGPILPPTNVGSNTP-NH2; disulfide 4-9 (inferred); C-terminus assumed)
–	49 (≈ 217 µg/mL)	4 (≈ 17.8 µg/mL)	27 (≈ 120 µg/mL)	174 (≈ 772 µg/mL)	> 200	> 200	> 200	> 200	–	19	0.171	> 200	0.225	–	CC[C@H](C)[C@H](NC(=O)[C@@H]1CCCN1C(=O)CNC(=O)[C@H](Cc1ccccc1)NC(=O)[C@H](CC(N)=O)NC(=O)[C@H](CC(N)=O)NC(=O)[C@H](CO)NC(=O)[C@H](CO)NC(=O)[C@H](Cc1c[nH]cn1)NC(=O)[C@H](Cc1c[nH]cn1)NC(=O)[C@H](CC(C)C)NC(=O)[C@H](Cc1ccccc1)NC(=O)[C@H](CCC(=O)O)NC(=O)[C@H](C)NC(=O)[C@H](CC(C)C)NC(=O)[C@H](CCCNC(=N)N)NC(=O)[C@H](CCC(N)=O)NC(=O)[C@@H](NC(=O)[C@H](C)NC(=O)[C@@H]1CSSC[C@H](NC(=O)[C@H](CO)NC(=O)CC[C@H](NC(=O)CCCCCCCCCCCCCCCCCCC(=O)O)C(=O)O)C(=O)N[C@@H](CC(N)=O)C(=O)N[C@@H]([C@@H](C)O)C(=O)N[C@@H](C)C(=O)N[C@@H]([C@@H](C)O)C(=O)N1)[C@@H](C)O)C(=O)N[C@@H](CC(C)C)C(=O)N1CCC[C@H]1C(=O)N1CCC[C@H]1C(=O)N[C@H](C(=O)N[C@@H](CC(N)=O)C(=O)N[C@H](C(=O)NCC(=O)N[C@@H](CO)C(=O)N[C@@H](Cc1c[nH]cn1)C(=O)N[C@H](C(=O)N[C@@H](Cc1ccc(O)cc1)C(N)=O)[C@@H](C)O)C(C)C)[C@@H](C)O [Example 107, N-alpha-[(S)-4-Carboxy-4-(19-carboxynonadecanoylamino)butyryl]-[Ser1,Glu14,His17,His35]-pramlintide] ({C20 diacid-γGlu}-SCNTATCATQRLAEFLHHSSNNFGPILPPTNVGSHTY-NH2; disulfide 2-7)
–	> 200	> 200	> 200	> 200	> 200	> 200	> 200	> 200	–	24	0.0705	> 200	0.0955	> 200	CC[C@H](C)[C@H](NC(=O)[C@@H]1CCCN1C(=O)CNC(=O)[C@H](Cc1ccccc1)NC(=O)[C@H](CC(N)=O)NC(=O)[C@H](CC(N)=O)NC(=O)[C@H](CO)NC(=O)[C@H](CO)NC(=O)[C@H](Cc1c[nH]cn1)NC(=O)[C@H](Cc1c[nH]cn1)NC(=O)[C@H](CC(C)C)NC(=O)[C@H](Cc1ccccc1)NC(=O)[C@H](CCC(=O)O)NC(=O)[C@H](C)NC(=O)[C@H](CC(C)C)NC(=O)[C@H](CCCNC(=N)N)NC(=O)[C@H](CCC(N)=O)NC(=O)[C@@H](NC(=O)[C@H](C)NC(=O)[C@@H]1CSSC[C@H](NC(=O)[C@H](CCCCN)NC(=O)CNC(=O)CC[C@H](NC(=O)CCCCCCCCCCCCCCCCCCC(=O)O)C(=O)O)C(=O)N[C@@H](CC(N)=O)C(=O)N[C@@H]([C@@H](C)O)C(=O)N[C@@H](C)C(=O)N[C@@H]([C@@H](C)O)C(=O)N1)[C@@H](C)O)C(=O)N[C@@H](CC(C)C)C(=O)N1CCC[C@H]1C(=O)N1CCC[C@H]1C(=O)N[C@H](C(=O)N[C@@H](CC(N)=O)C(=O)N[C@H](C(=O)NCC(=O)N[C@@H](CO)C(=O)N[C@@H](Cc1c[nH]cn1)C(=O)N[C@H](C(=O)N[C@@H](Cc1ccc(O)cc1)C(N)=O)[C@@H](C)O)C(C)C)[C@@H](C)O [Example 81, N-alpha-[(S)-4-Carboxy-4-(19-carboxynonadecanoylamino)butyryl]-Gly-[Glu14,His17,His35]-pramlintide] ({C20 diacid-γGlu}-GKCNTATCATQRLAEFLHHSSNNFGPILPPTNVGSHTY-NH2; disulfide 3-8 (inferred); C-terminus assumed)
–	> 200	> 200	> 200	> 200	> 200	> 200	> 200	> 200	–	1.3	0.034	> 200	0.039	> 200	CC(C)C[C@H](NC(=O)[C@H](CCCNC(=N)N)NC(=O)[C@H](CCC(N)=O)NC(=O)[C@@H](NC(=O)[C@H](C)NC(=O)[C@@H]1CSSC[C@H](NC(=O)[C@H](CCCCN)NC(=O)CC[C@H](NC(=O)CCCCCCCCCCCCCCCCCCC(=O)O)C(=O)O)C(=O)N[C@@H](CC(N)=O)C(=O)N[C@@H]([C@@H](C)O)C(=O)N[C@@H](C)C(=O)N[C@@H]([C@@H](C)O)C(=O)N1)[C@@H](C)O)C(=O)N[C@@H](C)C(=O)N[C@@H](CCC(=O)O)C(=O)N[C@@H](Cc1ccccc1)C(=O)N[C@@H](CC(C)C)C(=O)N[C@H](C(=O)N[C@@H](CCCNC(=N)N)C(=O)N[C@@H](CO)C(=O)N[C@@H](CO)C(=O)N[C@@H](CCC(N)=O)C(=O)N[C@@H](CC(N)=O)C(=O)N[C@@H](Cc1ccccc1)C(=O)NCC(=O)N[C@@H](C)C(=O)N1CCC[C@H]1C(=O)N[C@@H](CC(C)C)C(=O)N[C@@H](CO)C(=O)N[C@@H](CO)C(=O)N[C@H](C(=O)N[C@@H](CC(N)=O)C(=O)N[C@H](C(=O)NCC(=O)N[C@@H](CO)C(=O)N[C@@H](CC(N)=O)C(=O)N[C@H](C(=O)N1CCC[C@H]1C(N)=O)[C@@H](C)O)C(C)C)[C@@H](C)O)C(C)C [Example 166, N-alpha-[(S)-4-Carboxy-4-(19-carboxynonadecanoylamino)butyryl]-[Glu14,Arg18,Gln21,Ala25,Pro26,Ser28,Ser29,Pro37]-pramlintide] ({C20 diacid-γGlu}-KCNTATCATQRLAEFLVRSSQNFGAPLSSTNVGSNTP-NH2; disulfide 2-7 (inferred); C-terminus assumed)
